This is an account of results in US20240092784A1, “CONDENSED HETEROCYCLIC COMPOUND” (NISSAN CHEMICAL CORPORATION, priority 2020, published 2024).

Each structure is given as a SMILES string. Structures can show the parent of a compound that is named as a salt.

The target in one assay is human SPR (Homo sapiens (Human), UniProt P35270). Briefly: Evaluation Example 2: Measurement of human SPR inhibitory activity (seven concentrations, sepiapterin absorbance at 420 nm). The settings on record: Evaluation Example 2, seven concentrations 0.14 nM to 100 nM, 240 minutes at room temperature, read-out: IC50. Type of assay: biochemical. In outline: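 Reactions ran 240 min at room temperature in 100 mM Tris-HCl pH 7.5 with 0.01% BSA. They contained tag-cleaved, E. coli-expressed full-length human SPR (diluted to 150 ng/mL), seven compound concentrations from 0.14 to 100 nM, and sepiapterin/NADPH added as a 120 μM/160 μM solution. Inhibition was calculated from sepiapterin absorbance at 420 nm.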
Sequence of human SPR (P35270 whole entry): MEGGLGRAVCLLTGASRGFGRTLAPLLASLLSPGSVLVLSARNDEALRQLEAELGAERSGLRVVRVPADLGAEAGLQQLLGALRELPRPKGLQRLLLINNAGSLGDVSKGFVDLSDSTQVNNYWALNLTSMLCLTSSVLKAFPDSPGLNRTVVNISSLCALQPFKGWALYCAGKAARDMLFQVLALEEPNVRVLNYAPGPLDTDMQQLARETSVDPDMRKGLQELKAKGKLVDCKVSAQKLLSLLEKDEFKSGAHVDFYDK
For `Cc1nn2c(O)c(C(=O)NC3CC3)c(=O)n(CC(C)C)c2c1/C=C/C(=O)N1C[C@@H](F)[C@@H](F)C1` [Synthesis Example 648, N-Cyclopropyl-3-((E)-3-(cis-3,4-difluoropyrrolidin-1-yl)-3-oxoprop-1-en-1-yl)-7-hydroxy-4-isobutyl-2-methyl-5-oxo-4,5-dihydropyrazolo[1,5-a]pyrimidine-6-carboxamide], the IC50 came out at 0.74 nM. The same measure, in the same setting: to `Cc1nn2c(O)c(C(=O)NC3CC3)c(=O)n(CC(C)C)c2c1/C=C/C(=O)N1CCc2cc(F)ccc21` [Synthesis Example 668, (E)-N-Cyclopropyl-3-(3-(5-fluoroindolin-1-yl)-3-oxoprop-1-en-1-yl)-7-hydroxy-4-isobutyl-2-methyl-5-oxo-4,5-dihydropyrazolo[1,5-a]pyrimidine-6-carboxamide] belongs 7.87 nM; to `Cc1cc(CNC(=O)c2cnn3c(O)c(C(=O)NC4CC4)c(=O)n(CC(C)C)c23)n(C)n1` [Synthesis Example 229, N6-Cyclopropyl-N3-((1,3-dimethyl-1H-pyrazol-5-yl)methyl)-7-hydroxy-4-isobutyl-5-oxo-4,5-dihydropyrazolo[1,5-a]pyrimidine-3,6-dicarboxamide], 0.85 nM; to `Cc1nn2c(O)c(C(=O)NC3CC3)c(=O)n(CC(C)C)c2c1/C=C/C(=O)N1CCOC(C)(C)C1` [Synthesis Example 657, (E)-N-Cyclopropyl-3-(3-(2,2-dimethylmorpholino)-3-oxoprop-1-en-1-yl)-7-hydroxy-4-isobutyl-2-methyl-5-oxo-4,5-dihydropyrazolo[1,5-a]pyrimidine-6-carboxamide], 0.92 nM.

Consider `COC1(C)CCN(C(=O)/C=C/c2cnn3c(O)c(C(=O)NC4CC4)c(=O)n(CC(C)C)c23)CC1` [compound 470], for which the IC50 came to 0.88 nM.

For the compound `CC(C)(C)Cn1c(=O)c(C(=O)NC2CC2)c(O)n2nc(Nc3cncc(C#N)n3)cc12` [Synthesis Example 324, 2-((6-Cyanopyrazin-2-yl)amino)-N-cyclopropyl-7-hydroxy-4-neopentyl-5-oxo-4,5-dihydropyrazolo[1,5-a]pyrimidine-6-carboxamide], the IC50 was determined as 1.61 nM. Still for that read-out and setting: to `Cc1nn2c(O)c(C(=O)NC3CC3)c(=O)n(CC(C)C)c2c1/C=C/C(=O)N1[C@@H](C)COC[C@@H]1C` [compound 567, N-Cyclopropyl-3-((E)-3-((3S,5S)-3,5-dimethylmorpholino)-3-oxoprop-1-en-1-yl)-7-hydroxy-4-isobutyl-2-methyl-5-oxo-4,5-dihydropyrazolo[1,5-a]pyrimidine-6-carboxamide] belongs 0.69 nM. Still for that read-out and setting: the value for `CCc1c(N)nn2c(O)c(C(=O)NC3CC3)c(=O)n(CC(C)(C)C)c12` [Synthesis Example 436, 2-Amino-N-cyclopropyl-3-ethyl-7-hydroxy-4-neopentyl-5-oxo-4,5-dihydropyrazolo[1,5-a]pyrimidine-6-carboxamide hydrochloride] was 1.2 nM; that for `CC(C)Cn1c(=O)c(C(=O)NC2CC2)c(O)n2ncc(CNC(=O)C3CCC(F)(F)CC3)c12` [Synthesis Example 263, N-Cyclopropyl-3-((4,4-difluorocyclohexane-1-carboxamido)methyl)-7-hydroxy-4-isobutyl-5-oxo-4,5-dihydropyrazolo[1,5-a]pyrimidine-6-carboxamide] was 1.22 nM; that for `CC(C)(C)Cn1c(=O)c(C(=O)NCC(F)(F)F)c(O)n2nc(Br)cc12` [Synthesis Example 272, 2-Bromo-7-hydroxy-4-neopentyl-5-oxo-N-(2,2,2-trifluoroethyl)-4,5-dihydropyrazolo[1,5-a]pyrimidine-6-carboxamide] was 3.78 nM. Same read-out and setting: to `CN(C)C(=O)c1cn[nH]c1-c1cc2n(CC(C)(C)C)c(=O)c(C(=O)NC3CC3)c(O)n2n1` [Synthesis Example 314, N-Cyclopropyl-2-(4-(dimethylcarbamoyl)-1H-pyrazol-5-yl)-7-hydroxy-4-neopentyl-5-oxo-4,5-dihydropyrazolo[1,5-a]pyrimidine-6-carboxamide hydrochloride] belongs 0.93 nM; to `CCN(C)C(=O)/C=C/c1cnn2c(O)c(C(=O)NC3CC3)c(=O)n(CC(C)C)c12` [compound 522, (E)-N-Cyclopropyl-3-(3-(ethyl(methyl)amino)-3-oxoprop-1-en-1-yl)-7-hydroxy-4-isobutyl-5-oxo-4,5-dihydropyrazolo[1,5-a]pyrimidine-6-carboxamide], 0.78 nM. On to `CC(C)Cn1c(=O)c(C(=O)NC2CC2)c(O)n2ncc(/C=C/C(=O)N3[C@H](C)CCC[C@@H]3C)c12` [compound 597, N-Cyclopropyl-3-((E)-3-(cis-2,6-dimethylpiperidin-1-yl)-3-oxoprop-1-en-1-yl)-7-hydroxy-4-isobutyl-5-oxo-4,5-dihydropyrazolo[1,5-a]pyrimidine-6-carboxamide], for which the IC50 was found to be 1.62 nM. Same read-out and setting: to `CC(C)Cn1c(=O)c(C(=O)NC2CC2)c(O)n2ncc(/C=C/C(=O)N3CCN(CC(F)(F)F)CC3)c12` [compound 506, (E)-N-Cyclopropyl-7-hydroxy-4-isobutyl-5-oxo-3-(3-oxo-3-(4-(2,2,2-trifluoroethyl)piperazin-1-yl)prop-1-en-1-yl)-4,5-dihydropyrazolo[1,5-a]pyrimidine-6-carboxamide] belongs 0.8 nM; to `Cc1cn[nH]c1-c1cc2n(CC(C)(C)C)c(=O)c(C(=O)NC3CC3)c(O)n2n1` [Synthesis Example 287, N-Cyclopropyl-7-hydroxy-2-(4-methyl-1H-pyrazol-5-yl)-4-neopentyl-5-oxo-4,5-dihydropyrazolo[1,5-a]pyrimidine-6-carboxamide], 2.53 nM; to `CC(C)Cn1c(=O)c(C(=O)NC2CC2)c(O)n2ncc(C(=O)NCc3ccccc3F)c12` [Synthesis Example 233, N6-Cyclopropyl-N3-(2-fluorobenzyl)-7-hydroxy-4-isobutyl-5-oxo-4,5-dihydropyrazolo[1,5-a]pyrimidine-3,6-dicarboxamide], 1.03 nM.

The same assay, now with this note: sepiapterin absorbance, Table 41, read-out: concentration at 50% inhibition of human SPR (IC50).
Turning to `Cc1nn2c(O)c(C(=O)NC3CC3)c(=O)n(CC(C)C)c2c1/C=C/C(=O)N1C[C@H]2C[C@@H]1CO2` [Synthesis Example 754, 3-((E)-3-((1R,4R)-2-Oxa-5-azabicyclo[2.2.1]heptan-5-yl)-3-oxoprop-1-en-1-yl)-N-cyclopropyl-7-hydroxy-4-isobutyl-2-methyl-5-oxo-4,5-dihydropyrazolo[1,5-a]pyrimidine-6-carboxamide], the IC50 stood at 0.83 nM. On the same count and under the same terms, to `Cc1nn2c(O)c(C(=O)NC3CC3)c(=O)n(CC(C)C)c2c1/C=C/C(=O)N1CCN(C)C[C@@H]1C` [Synthesis Example 701, (S,E)-N-Cyclopropyl-3-(3-(2,4-dimethylpiperazin-1-yl)-3-oxoprop-1-en-1-yl)-7-hydroxy-4-isobutyl-2-methyl-5-oxo-4,5-dihydropyrazolo[1,5-a]pyrimidine-6-carboxamide] belongs 0.98 nM. The same measure, in the same setting: to `CCN1CCN(C(=O)/C=C/c2c(C)nn3c(O)c(C(=O)NC4CC4)c(=O)n(CC(C)C)c23)[C@H](C)C1` [Synthesis Example 751, (R,E)-N-Cyclopropyl-3-(3-(4-ethyl-2-methylpiperazin-1-yl)-3-oxoprop-1-en-1-yl)-7-hydroxy-4-isobutyl-2-methyl-5-oxo-4,5-dihydropyrazolo[1,5-a]pyrimidine-6-carboxamide] belongs 1.34 nM.
